Series [1] has as its system TA100, TA98, TA 102, TA 1537 and TA 1535. Nature of the series: AMES test, overall conclusion over all strains. The following applies: absence and presence of S-9. The series is classed as cell-based, Salmonella typhimuriu. From the text:
Gene mutation can be evaluated in vitro, using amino-acid requiring strains of Salmonella typhimuriu. Different protocols for this test have been published (Ames B. N. et al Mutation Res. 1975, 31, 347-364, and Gatehouse D. et al Mutation Res. 1994, 312, 217-233). The principle of this bacterial reverse mutation test is that it detects mutations which revert mutations present in the test strains and restore the functional capability of the bacteria to synthesise an essential amino acid. The revertant bacteria are detected by their ability to grow in the absence of the amino acid required by the parent test strain.
In the present example, the guidelines OECD TG 471 (i.e. AMES Test) was used to detect gene mutation at different doses in the TA100, TA98, TA 102, TA 1537 and TA 1535.
Treatments covering a broad range of concentrations, separated by narrow intervals, were performed both in the absence and presence of metabolic activation (S-9) from Aroclor 1254 induced animals. The compound was formulated in anhydrous analytical grade dimethylsulphoxide (DMSO) and the highest concentration used in was determined following a preliminary cytotoxicity Range-Finder Experiment.

For series [2], the system named is Male obese Zucker diabetic fatty (ZDF fa/fa) rats. Nature of the series: Treatment of prediabetic ZDF rats by IP injection (plasma glucose, serum triglycerides). The format is in vivo, rat. The following applies: IP injection 10 mg/kg once daily for three weeks, PEG 300. As for the experimental part: Male obese Zucker diabetic fatty (ZDF fa/fa) rats were used to test the in vivo activity of compound 1. This animal model develops hyperglycemia and insulin resistance.
In this example, six-week-old male prediabetic ZDF rats (Charles River) are provided rat chow and water ad libidum. The obese rats are divided into a control and a treated groups (n=6 per subgroup).
The compound 1 is dissolved in PEG 300 and administrated by IP injection at a dose of 10 mg/kg once daily for a period of three weeks.
Glucose plasma level can be measured by the commercially available kit using the glucose oxydase method (Sigma Chemical Co.).
(§1) Assay of serum triglycerides may be performed enzymatically using a commercially available kit. In summary, the triglycerides are treated with a lipase in order to generate glycerol and fatty acids. In the presence of ATP, the glycerol is transformed by […] into glycerol-3-phosphate. The glycerol-3-phosphate is subsequently transformed into dihydroxyacetone in generating oxygenated water (H202) which may be detected by formation of quinoneimine in the presence of parachlorophenol, amino-4-antipyrin and peroxydase. The intensity of the quinoneimine coloration is subsequently measured at 505 nm. This coloration is proportional to the quantity of triglycerides present in the sample.

For a further series, the system named is ZDF rats. Nature of the series: Treatment of prediabetic ZDF rats by oral administration (plasma triglycerides). The format is in vivo, rat. As for the experimental part:
as §1
Following the same experiments as in example 2.2, ZDF rats were used to evaluate the effect of the compound on the glycaemia and the plasma level of triglycerides using the experimental protocol described in example 2.2.
The compound was dissolved in PEG 300 and orally administrated to a series of 8 rats for 2 weeks.

As to `COc1cc(O)c(/C=N/NC(=O)c2ccc3nccn3c2)c(OC)c1` [Compound 1, [1-(2-hydroxy-4,6-dimethoxy-phenyl)-methylidene]-imidazo[1,2-a]pyridine-6-carbohydrazide], the “mutagenic activity in AMES test” value in series [1] is “does not exhibit mutagenic activity”. In addition, in series [2], the circulating triglycerides result is given as “significantly reduce” and the “plasma level of glucose” value is given as “significantly reduces”. Also, the circulating triglycerides entry in the series with ZDF rats (administered orally, 2 weeks) is “significantly reduce”. Besides, the “Reduction of plasma triglycerides” value with ZDF rats (orally administrated for 2 weeks, versus untreated rats) is 37.4%. Besides, the “Triglycerides, plasma level” value with ZDF rats (orally administrated in PEG 300 for 2 weeks, ZDF rats (n = 8)) worked out at 1.02 ± 0.1 mM.

The values are drawn from patent publication US20120277436A1, “PHENYLHYDRAZONE DERIVATIVES AND THEIR USE AS PHARMACEUTICALS” (priority 2009, published 2012).
